Active and inactive are the calls of the source. No rule for the calls is given here.
Target: Induced myeloid leukemia cell differentiation protein Mcl-1 (Homo sapiens) (UniProt Q07820)
Assay: Mcl-1/Bim interaction regulators – biochemical, bead-based flow cytometry, multiplexed, human, dose response (AID 1329)
Conditions: Bim peptide-Mcl-1 binding, MCF

Sequence of Induced myeloid leukemia cell differentiation protein Mcl-1 (Homo sapiens) (Q07820 whole entry, looked up): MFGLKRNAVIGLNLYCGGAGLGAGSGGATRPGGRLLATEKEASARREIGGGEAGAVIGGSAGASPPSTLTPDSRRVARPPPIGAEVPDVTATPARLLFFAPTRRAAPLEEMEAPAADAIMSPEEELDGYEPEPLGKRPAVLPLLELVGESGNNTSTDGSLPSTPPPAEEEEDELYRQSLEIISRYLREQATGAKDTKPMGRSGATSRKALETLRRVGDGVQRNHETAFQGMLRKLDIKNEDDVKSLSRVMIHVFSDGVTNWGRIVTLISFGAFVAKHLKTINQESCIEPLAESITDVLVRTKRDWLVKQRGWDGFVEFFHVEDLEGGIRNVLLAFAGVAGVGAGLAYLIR

Row | SMILES | percent span
1 | O=C(N/N=C/c1ccc(O)c(O)c1O)/C(=C/c1ccc([N+](=O)[O-])cc1)NC(=O)c1ccccc1 | inactive
2 | S=c1[nH]cc(-c2ccccc2)n1-c1ccccc1Cl | inactive
3 | O=c1c2c(-c3ccccc3)csc2nc2c3ccccc3c(NCCN3CCOCC3)nn12 | inactive
4 | CCC(=O)NC(c1ccc(C)cc1)c1cc([N+](=O)[O-])c2cccnc2c1O (stereo unspecified) | inactive
5 | S=C1NC2=C(CCC/C2=C\c2ccccc2)C(c2ccccc2)N1 (stereo unspecified) | inactive
6 | COc1cccc(/C=N/NC(=O)c2cc3cc([N+](=O)[O-])ccc3s2)c1O | inactive
7 | O=C(Nc1ccc2nc(-c3ccco3)c(-c3ccco3)nc2c1)NC1CC1 | inactive
8 | COc1ccc(OC)c(-n2c(-c3ccc(C)cc3)n[nH]c2=S)c1 | inactive
9 | O=C(c1cc(=O)c2ccccc2o1)N1CCN(c2ccccc2F)CC1 | inactive
10 | CNc1ccccc(C(=O)/C=C/c2ccccc2OC)c1=O | inactive
11 | CN(Cc1ccccc1)c1nc2c(c(=O)[nH]c(=O)n2C)n1C | inactive
12 | N#Cc1cc(-c2ccccc2)nn1-c1ccccc1 | inactive
13 | CN=c1scc(-c2cccs2)n1/N=C/c1ccc(O)c(O)c1O | inactive
14 | CCN(CC)c1ccc(NC(=O)c2ccccc2F)cc1S(=O)(=O)Nc1ccccc1OC | inactive
15 | CC(C)(C)NC(=O)COc1ccc(CNc2ccc3[nH]c(=O)[nH]c3c2)cc1 | inactive
16 | CCN(CC)c1ccc(NC(=O)c2cccc(C)c2)cc1S(=O)(=O)Nc1ccccc1OC | inactive
17 | COc1ccc(C2(NC(C)=O)CCN(C(=O)c3ccco3)CC2)cc1 | inactive
18 | O=C(C1=C(Nc2ccccc2)c2ccccc2S(=O)(=O)N1)c1ccccc1 | inactive
19 | Cc1ccc(CC(=O)OCCNC(=O)c2cccnc2)cc1 | inactive
20 | O=C(NCCN1CCOCC1)c1cc(Cl)ccc1[N+](=O)[O-] | inactive
21 | COc1ccc(CN(C)CC(=O)NC(C)c2ccccc2)c(OC)c1 (stereo unspecified) | inactive
22 | Cc1cc(OCc2cn3cccnc3n2)ccc1Cl | inactive
23 | COc1ccc(N2CCN(C(=O)c3cc(=O)[nH]c4ccccc34)CC2)cc1 | inactive
24 | O=C(c1cc2ccccc2oc1=O)N(c1ccccc1)C1C=CS(=O)(=O)C1 (stereo unspecified) | inactive
25 | CC1(C(=O)N(CC(=O)NC2CCCC2)Cc2ccco2)CC(=O)N=C2C=CC=CN21 (stereo unspecified) | inactive
26 | O=C(C1=NN[C@@H]2C(=O)N(c3ccccc3C(F)(F)F)C(=O)[C@H]12)c1ccc2ccccc2n1 | inactive

Row | SMILES | percent span
27 | CCN1/C(=C/c2ccc3cc(C)cc(C)c3[n+]2CC)Sc2cc(C)ccc21 | inactive
28 | CNC(CC(=O)c1ccc([N+](=O)[O-])cc1)C(Cl)(Cl)Cl (stereo unspecified) | inactive
29 | S=C(Nc1ccccc1)N1CCn2cccc2C1c1cccnc1 (stereo unspecified) | inactive
30 | Cc1cc(Cl)ccc1N=c1ssnc1Cl | inactive
31 | O=C1C(Cl)=C(N2CCN(c3ccccc3[N+](=O)[O-])CC2)C(=O)c2ccccc21 | inactive
32 | Cc1ccc(NC(=O)c2cc(S(=O)(=O)NCCC3=CCCCC3)ccc2F)cc1F | inactive
33 | Cn1c(=O)c2cc(S(=O)(=O)Nc3cc(C(=O)O)cc(C(=O)O)c3)ccc2n(C)c1=O | inactive
34 | COc1cccc2c(SCC(=O)N/N=C/c3ccccc3)cc(C)nc12 | inactive
35 | Cc1cc(-c2csc(N)n2)c(C)n1CCc1ccccc1 | inactive
36 | COc1ccc(NC(=O)c2ccco2)cc1NC(=O)c1ccco1 | inactive
37 | Cc1cc(-c2csc(N)n2)c(C)n1CCC(C)C | inactive
38 | CCn1c(C)nc2cc(C(=O)N/N=C/c3ccc(O)c(O)c3O)ccc21 | inactive
39 | CCN(CC)c1ccc(-c2nn3c(-c4ccccc4OC)nnc3s2)cc1 | inactive
40 | COc1cc(/C=C2\S/C(=N/S(=O)(=O)c3ccc(C)cc3)NC2=O)c([N+](=O)[O-])cc1OC | inactive
41 | Cc1sc(NC(=O)Cn2cnnn2)nc1-c1ccc(Cl)cc1 | inactive
42 | COc1cc(/C=N/Nc2nc3c(c(=O)n(C)c(=O)n3C)n2Cc2ccccc2)ccc1OC(=O)c1ccco1 | inactive
43 | Cc1ccc(/C=C/C2=Cc3c(sc(NC(=O)CSc4n[nH]c(N)n4)c3C#N)C(C)(C)C2)o1 | inactive
44 | O=C(Cc1ccccc1)N/N=C/c1cccn1-c1ccc([N+](=O)[O-])cc1 | inactive
45 | CCOC(=O)c1nn(-c2ccccc2)c(C#N)c1N | inactive
46 | Cc1ccc(/C=C2/NC(=O)N(Cc3ccc(Br)cc3)C2=O)o1 | inactive
47 | Fc1ccccc1-n1cc(-c2ccccc2)[nH]c1=S | inactive
48 | CN(C)c1ccc(Nc2nc(-c3cccnc3)cs2)cc1 | inactive
49 | CN(CCCOc1ccccc1Br)Cc1ccccc1 | inactive
50 | CCOC(=O)N1CCC(c2cc(=O)n(-c3ccccc3)[nH]2)CC1 | inactive
51 | O=C(CSc1nc2ccsc2c(=O)n1Cc1ccc(C(=O)O)cc1)NCC1CCCO1 (stereo unspecified) | inactive
52 | COc1cc(N=c2ssnc2Cl)cc(OC)c1 | inactive

Row | SMILES | percent span
53 | CCCc1nnc2n1N=C(c1ccc(-c3cc(Cl)ccc3Cl)o1)CS2 | inactive
54 | Cc1cc2nc(/C(C#N)=C/c3ccncc3)[nH]c2cc1C | inactive
55 | Cc1cccc(N2CCN(C(=S)Nc3ccc4nc(N5CCN(C)CC5)cc(C)c4c3)CC2)c1C | inactive
56 | CCn1c(C)c(/C=N/Nc2nc3ccccc3s2)c2ccccc21 | inactive
57 | Cn1c(N)c(C(=O)COC(=O)c2cc(-c3ccco3)nc3ccccc23)c(=O)n(Cc2ccccc2)c1=O | inactive
58 | COc1ccc(-c2csc(NC(=O)/C(N=Nc3ccccc3)=C(\C)O)n2)cc1 | inactive
59 | Cc1cc(C)n(CC(=O)N/N=C/c2cccc([N+](=O)[O-])c2)n1 | inactive
60 | C1=CC2c3ccccc3NC(c3ccncc3)C2C1 (stereo unspecified) | inactive
61 | CC(C)C(=O)NC(c1ccccc1)c1cc([N+](=O)[O-])c2cccnc2c1O (stereo unspecified) | inactive
62 | COc1ccc(CCNC(=O)c2ccc3nc(-c4ccco4)c(-c4ccco4)nc3c2)cc1OC | inactive
63 | CCN1/C(=C/c2ccc3cc(C)ccc3[n+]2CC)Sc2cc(C)c(C)cc21 | inactive
64 | CC1=NN(c2ccc(C)cc2)C(=O)/C1=C\c1ccc(Br)s1 | inactive
65 | CCC(=O)OCCNc1cc(Sc2nc3ccccc3s2)c2nonc2c1[N+](=O)[O-] | inactive
66 | Cc1c(N=C2C=CC(=O)c3ccccc32)c(=O)n(-c2ccccc2)n1C | inactive
67 | CCOC(=O)c1nc(Nc2ccc(N3CCC(C)CC3)cc2)c2ccccc2n1 | inactive
68 | CCOC(=O)CSC1=NC(=O)/C(=C\c2ccc(OC(C)=O)cc2)S1 | inactive
69 | Cc1nc(=S)c2ccccc2[nH]1 | inactive
70 | COC(=O)/C(=C/c1ccc(F)cc1)NC(C)=O | inactive
71 | CCc1nn2cc(C(=O)c3cc(C)ccc3O)cnc2c1-c1ccc(F)cc1 | inactive
72 | COc1ccc(CC(=O)Nc2ccc(C(=O)Nc3nccs3)cc2)cc1OC | inactive
73 | CCOc1cc(C2Nc3cccc4cccc(c34)N2)ccc1O | inactive
74 | COc1ccc(NC(=O)c2ccc(CN3CCN(c4ccccc4)CC3)cc2)cc1 | inactive
75 | c1ccc(C2=Nc3cccc4cccc(c34)N2)cc1 | inactive
76 | COc1ccc(NC(=O)/C(Cl)=C(/Cl)S(=O)Cc2ccccc2)cn1 (stereo unspecified) | inactive
77 | CCN1CCN(c2cc(C)c3cc(NC(=S)N4CCN(c5ccc(F)cc5)CC4)ccc3n2)CC1 | inactive
78 | CC(/C=C/C(=O)c1ccc(C)cc1)=C\c1ccccc1 | inactive

Row | SMILES | percent span
79 | CN(C)c1ccc(/C=C2/SC(=O)N(CCN=C3NS(=O)(=O)c4ccccc43)C2=O)cc1 | inactive
80 | O=C(/C=C/c1c(F)cccc1Cl)Nc1ccncc1 | inactive
81 | S=C(NCCc1ccccc1)NCCc1ccccc1 | inactive
82 | O=C(CSc1nnc(Cc2ccccc2)o1)NCc1ccco1 | inactive
83 | COc1cccc2c1C(=O)C=C(C)C2=O | inactive
84 | Cn1c(=O)c(C(=O)COC(=O)c2cc(-c3ccco3)nc3ccccc23)c(N)n(CC2CC2)c1=O | inactive
85 | Cc1cc(C)c(S(=O)(=O)/N=C2/C=C(SCC(=O)O)C(=O)c3ccccc32)cc1C | inactive
86 | Cc1cc(C)cc(-n2c(C)nc3cc(C(=O)O)ccc32)c1 | inactive
87 | COc1ccc(-c2nnc(SCC(=O)Nc3nc4ccccc4s3)n2C)cc1 | inactive
88 | Cc1ccc(/C=C/C(=O)c2ccccc(=O)c2O)cc1C | inactive
89 | O=C(N/N=C/c1cccnc1)c1cccc(S(=O)(=O)N2CCCC2)c1 | inactive
90 | CCOC(=O)c1nc(Nc2ccc(Nc3ccccc3)cc2)c2ccccc2n1 | inactive
91 | Cc1cc(-c2nnc(CCC(=O)NC(C)c3cccc4ccccc34)o2)no1 (stereo unspecified) | inactive
92 | Cn1c(CCNC(=O)C2CCCCC2)nc2cc(NC(=O)c3cccs3)ccc21 | inactive
93 | O=C1C(=O)c2ccc(-c3ccccc3)cc2-c2ccccc21 | inactive
94 | O=C(O)c1ccc(NS(=O)(=O)c2ccc3c(c2)C(=O)c2ccccc2C3=O)cc1 | inactive
95 | Cc1nn(-c2ccc(Cl)cc2)c(Cl)c1/C=C(\C#N)C(N)=O | inactive
96 | CC[n+]1c(/C=C/C=C/N(C(C)=O)c2ccccc2)sc2ccccc21 | inactive
97 | COc1ccc2cc(CN(CCc3ccccc3)Cc3nnnn3CC3CCCO3)c(=O)[nH]c2c1 (stereo unspecified) | inactive
98 | Cc1ccc(CNc2ccc3c(c2)OCO3)c(C)c1 | inactive
99 | COc1cccc2c(SCC(=O)N/N=C/c3ccc(O)c(O)c3)cc(C)nc12 | inactive
100 | COc1ccc(OC)c(NC(=O)CCCN2C(=S)NC(C)(C)CC2C)c1 (stereo unspecified) | inactive
101 | COC(=O)C1C2c3ccccc3OC1(C)N=c1s/c(=C/c3cnn(C)c3C)c(=O)n12 (stereo unspecified) | inactive

— PubChem BioAssay AID1329 (NMMLSC, 2008)
